Like-named read-outs stand apart in the source and are kept apart here.
How the values were obtained:
DB = test: 5-day viable cell number and apoptosis (7-AAD exclusion/Annexin V flow cytometry); assay type: cell-based; details: Homo sapiens; DB cells (Table 3)
Text: (§1) The DLBCL panel includes seven cell lines classified as activated B-cell (ABC) subtype, thirteen cell lines classified as the germinal center B-cell (GCB) subtype, and three cell lines classified as primary mediastinal B-cell lymphoma (PMBL). […] The translocation of MYC, BCL6, or BCL2 to an IG locus usually leads to high levels of mRNA and protein due to the active transcription driven by a constitutively active IG promoter. […] Expressions of CRBN protein and known substrates, Ikaros, Aiolos, and ZFP91 were also evaluated (FIG. 1, panels B and C).
(§2) The panel of cell lines were treated with increasing doses of compounds for five days, at which time the number of viable cells was measured and the amount of apoptosis was determined by 7-AAD exclusion and Annexin V staining using flow cytometry.

Farage = test: as above; assay type: cell-based; details: Farage cells (Table 3); read-out: IC50
Text: as §1, §2

HT = test: as above; assay type: cell-based; details: Homo sapiens; HT cells (Table 3); read-out: IC50
Text: as §1, §2

KARPAS-1106P = test: as above; assay type: cell-based; details: Homo sapiens; KARPAS-1106P cells (Table 3); read-out: IC50
Text: as §1, §2

KARPAS-422 = test: as above; assay type: cell-based; details: Homo sapiens; KARPAS-422 cells (Table 3); read-out: IC50
Text: as §1, §2

OCI-LY-7 = test: as above; assay type: cell-based; details: Homo sapiens, OCI-Ly7; OCI-LY-7 cells (Table 3); read-out: IC50
Text: as §1, §2

OCI-Ly10 = test: as above; assay type: cell-based; details: Homo sapiens; OCI-Ly10 cells (Table 3); read-out: IC50
Text: as §1, §2

Pfeiffer = test: as above; assay type: cell-based; details: Homo sapiens; Pfeiffer cells (Table 3)
Text: as §1, §2

RC-K8 = test: as above; assay type: cell-based; details: Homo sapiens, RCK8; RC-K8 cells (Table 3); read-out: IC50
Text: as §1, §2

RIVA = test: as above; assay type: cell-based; details: RIVA cells (Table 3); read-out: IC50
Text: as §1, §2

SU-DHL-10 = test: as above; assay type: cell-based; details: Homo sapiens, SU-DHL10; SU-DHL-10 cells (Table 3); read-out: IC50
Text: as §1, §2

SU-DHL-16 = test: as above; assay type: cell-based; details: Homo sapiens; SU-DHL-16 cells (Table 3); read-out: IC50
Text: as §1, §2

SU-DHL-2 = test: as above; assay type: cell-based; details: Homo sapiens; SU-DHL-2 cells (Table 3); read-out: IC50
Text: as §1, §2

SU-DHL-4 [1] = test: as above; assay type: cell-based; details: Homo sapiens; SU-DHL-4 cells (Table 3); read-out: IC50
Text: as §1, §2

SU-DHL-8 = test: as above; assay type: cell-based; details: Homo sapiens; SU-DHL-8 cells (Table 3); read-out: IC50
Text: as §1, §2

U2932 = test: as above; assay type: cell-based; details: Homo sapiens; U2932 cells (Table 3); read-out: IC50
Text: as §1, §2

WSU-DLCL2 = test: as above; assay type: cell-based; details: Homo sapiens, WSUDLCL2; WSU-DLCL2 cells (Table 3); read-out: IC50
Text: as §1, §2

SU-DHL-4 [2] = test: CellTiter-Glo (CTG) antiproliferative assay, 5-day; assay type: cell-based; details: for antiproliferative activity (in words): SU-DHL-4, CellTiter-Glo
Protocol: To evaluate the activity of both Compound 1 and Compound 2 in DLBCL cells, a CellTiter-Glo (CTG) assay was performed to measure the antiproliferative activity.

cereblon (CRBN) = cereblon (CRBN) (Homo sapiens, UniProt Q96SW2); test: Cereblon binding TR-FRET ligand competition assay; details: 10 to 20 minutes, n=5
Protocol: To investigate whether Compound 1 and its R-enantiomer Compound 2 could bind to cereblon, a short duration (10 to 20 minutes) ligand competition assay was used.

Aiolos = molecular target: T1, Aiolos (Homo sapiens, UniProt Q96SW2+Q9UKT9); test: ePL-tagged substrate degradation kinetics in DF15 cells (enantiomer comparison); assay type: cell-based; parameters: Aiolos Y-constant: scale not given here; details: for DC50: read-out: Aiolos EC50
T1 construct: expressed in transfected cells; host or cells: DF15 cells
Protocol: (§3) In a second assay, DF15 cell lines expressing ePL-tagged target protein substrates were used as a model system to monitor protein degradation at 0.75, 1, 1.5, 3, 4, and 24 hours over a concentration range from 1 pM to 10 μM. The proteins evaluated were Ikaros (FIG. 17), Aiolos, and ZFP91. Compound 1 and Compound 2 were both able to degrade the substrate proteins at all time points (Table 9). In a further assay, additional time points were included to monitor the effect of treatment with Compound 1 and Compound 2.
(§4) The depth of substrate protein degradation described by the Y-constant was also measured in this assay against a negative control luciferase inhibitor (CC1071297, Y-constant=0).

ZFP91 = molecular target: T2, ZFP91 (Homo sapiens, UniProt Q96JP5+Q96SW2); test: as above; assay type: cell-based; parameters: ZFP91 Y-constant: scale not given here; details: for DC50: read-out: ZFP91 EC50
T2 construct: expressed in transfected cells; host or cells: DF15 cells
Protocol: as §3, §4

SU-DHL-2 cells = test: Western blot of substrate degradation by each enantiomer, short time-course; assay type: cell-based; details: SU-DHL-2, higher concentrations and longer exposure
Protocol: Pure samples of each enantiomer were tested for cellular degradation of substrate proteins measured over a short time-course (FIG. 16). SU-DHL-2 cells were treated for 1, 2, and 6 hours with vehicle control (0.1% DMSO), Compound 1 (1, 10, 100 nM), or Compound 2 (1, 10, 100 nM). Western blot analysis was used to evaluate the extent of degradation of the protein substrates Aiolos, Ikaros, and ZFP91. Compound 1 inhibited Aiolos, Ikaros, and ZFP91 in as early as 1 hour of treatment with as little as 1 nM.

Ikaros = Ikaros (Homo sapiens, UniProt Q13422+Q96SW2); test: ePL-tagged substrate degradation kinetics in DF15 cells (enantiomer comparison); assay type: cell-based; parameters: expressed in transfected cells; host or cells: DF15 cells; Ikaros Y-constant: scale not given here; details: for DC50: read-out: Ikaros EC50
Protocol: as §3, §4

CC1(C)CCC(CN2CCN(c3ccc(C(=O)NS(=O)(=O)c4ccc(NCC5CCOCC5)c([N+](=O)[O-])c4)c(Oc4cnc5[nH]ccc5c4)c3)CC2)=C(c2ccc(Cl)cc2)C1 [Venetoclax, 4-(4-{[2-(4-chlorophenyl)-4,4-dimethylcyclohex-1-en-1-yl]methyl}piperazin-1-yl)-N-({3-nitro-4-[(tetrahydro-2H-pyran-4ylmethyl)amino]phenyl}sulfonyl)-2-(1H-pyrrolo[2,3-b]pyridin-5-yloxy)benzamide, reference compound]
IC50 (DB): 82 µM
IC50 (Farage): 560 µM
IC50 (HT): 644 µM
IC50 (KARPAS-1106P): 200 µM
IC50 (KARPAS-422): 75 µM
IC50 (OCI-LY-7): 1010 µM
IC50 (OCI-Ly10): 200 µM
IC50 (Pfeiffer): 432 µM
IC50 (RC-K8): 609 µM
IC50 (RIVA): 5 µM
IC50 (SU-DHL-10): 454 µM
IC50 (SU-DHL-16): 21 µM
IC50 (SU-DHL-2): 355 µM
IC50 (SU-DHL-4 [1]): 145 µM
IC50 (SU-DHL-8): 548 µM
IC50 (U2932): 230 µM
IC50 (WSU-DLCL2): 215 µM

O=C1CCC(N2C(=O)c3cccc(NCc4ccc(CN5CC(N6CCOCC6)C5)cc4F)c3C2=O)C(=O)N1 (racemic) [Compound 3, 2-(2,6-Dioxopiperidin-3-yl)-4-((2-fluoro-4-((3-morpholinoazetidin-1-yl)methyl)benzyl)amino)isoindoline-1,3-dione]
antiproliferative activity (in words) (SU-DHL-4 [2]): Potent antiproliferative activity

O=C1CC[C@@H](N2C(=O)c3cccc(NCc4ccc(CN5CC(N6CCOCC6)C5)cc4F)c3C2=O)C(=O)N1 [Compound 2, (R)-2-(2,6-dioxopiperidin-3-yl)-4-((2-fluoro-4-((3-morpholinoazetidin-1-yl)methyl)benzyl)amino)isoindoline-1,3-dione]
IC50 (SU-DHL-4 [2]; Homo sapiens, 120 h, SU-DHL-4, 5-day assay, n = 6): 0.032 µM
antiproliferative activity (in words) (SU-DHL-4 [2]): Potent antiproliferative activity
IC50 (cereblon (CRBN)): 10.2 ± 1 µM
Aiolos Y-constant (Aiolos; 0.75 hours): 54
DC50 (Aiolos; 0.75 hours): 0.038 µM
Aiolos Y-constant (Aiolos; 1 hour): 37
DC50 (Aiolos; 1 hour): 0.024 µM
Aiolos Y-constant (Aiolos; 1.5 hours): 15
DC50 (Aiolos; 1.5 hours): 0.017 µM
Aiolos Y-constant (Aiolos; 3 hours): 3.5
DC50 (Aiolos; 3 hours): 0.01 µM
Aiolos Y-constant (Aiolos; 4 hours): 3.5
DC50 (Aiolos; 4 hours): 0.0073 µM
Aiolos Y-constant (Aiolos; 24 hours): 3.8
DC50 (Aiolos; 24 hours): 0.0053 µM
ZFP91 Y-constant (ZFP91; 0.75 hours): 41
DC50 (ZFP91; 0.75 hours): 0.029 µM
ZFP91 Y-constant (ZFP91; 1 hour): 22
DC50 (ZFP91; 1 hour): 0.025 µM
ZFP91 Y-constant (ZFP91; 1.5 hours): 10
DC50 (ZFP91; 1.5 hours): 0.016 µM
ZFP91 Y-constant (ZFP91; 3 hours): 4.6
DC50 (ZFP91; 3 hours): 0.0045 µM
ZFP91 Y-constant (ZFP91; 4 hours): 4.1
DC50 (ZFP91; 4 hours): 0.0026 µM
ZFP91 Y-constant (ZFP91; 24 hours): 2.5
DC50 (ZFP91; 24 hours): 0.00035 µM
expression of Aiolos, Ikaros, and ZFP91 (SU-DHL-2 cells): decreased expression
Ikaros Y-constant (Ikaros; 0.75 hours): 47.0
DC50 (Ikaros; 0.75 hours): 0.0397 µM
Ikaros Y-constant (Ikaros; 1 hour): 34.4
DC50 (Ikaros; 1 hour): 0.027 µM
Ikaros Y-constant (Ikaros; 1.5 hours): 15.3
DC50 (Ikaros; 1.5 hours): 0.0225 µM
Ikaros Y-constant (Ikaros; 3 hours): 7.3
DC50 (Ikaros; 3 hours): 0.00888 µM
Ikaros Y-constant (Ikaros; 4 hours): 5.5
DC50 (Ikaros; 4 hours): 0.00731 µM
Ikaros Y-constant (Ikaros; 24 hours): 2.4
DC50 (Ikaros; 24 hours): 0.0007 µM
